Several values for one entry are separate records, joined by “and”; a condition that tells them apart may be missing. Equal values may be shown once.
Key:
Assay type in all cases: in vivo, BALB/c mice
[1] = tested on: OVA-sensitized asthmatic mice; test: Airway hyperresponsiveness (AHR) test, Buxco system, Penh after methacholine aerosol
Experimental: (§1) Mice in different groups were fed with a Poria extract or pure lanostane compound during the experimental period, and each mouse was subjected to an airway hyperresponsiveness test after one-month feeding, from which an important index reflecting the severe degree of the asthma of the mouse was determined. […] Further, a chemoattractant factor, Eotaxin, was an important observation factor in this example for observing whether the secretion of cytokines changed dramatically.
(§2) • (1) Experimental animal: Inbred BALB/c female mice were maintained by standard laboratory chow ad libitum. Room temperature was maintained at 19-24°C and relative humidity at 50-70%. […] Three minutes after the introduction an average value of AHR per minute was recorded. […] The value of Penh (pause of enhance) was calculated by collecting data derived from transducer (differential pressure transducer; Buxco) and preamplifier (MAX □, Buxco) in the system. The relative increase ratio of Penh was calculated as Penh% = Penhmethacholine/PenhPBS, wherein Penhmethacholine is the average value of Penh after the mice inhale 3 minutes of methacholine aerosol, and PenhPBS is the average value of Penh after the mice inhale 3 minutes of PBS aerosol. • (5) Bronchoalveolar lavage fluid (BALF) and lung histology: As all groups of mice had finished of AHR analysis, they were sacrificed on next day. […]

Eotaxin = Eotaxin level in BALF by Sandwich-ELISA; conditions: mean ± SD
Experimental: as §1, §2

[2] = tested on: immune cells in BALF of OVA-sensitized mice; test: Percentage of subpopulations of immune cells in bronchoalveolar lavage fluid (BALF), Liu's stain cell count; conditions: % of total BALF cells, mean ± SD
Experimental: as §1
• (1) Experimental animal: Inbred BALB/c female mice were maintained by standard laboratory chow ad libitum. Room temperature was maintained at 19-24°C and relative humidity at 50-70%. Animal experiments were performed according to the Guidelines for the Care and Use of Laboratory Animals, Fu-Jen University, Taiwan. […] All mice were exposed to inhalate exposure to 8 ml of 2% OVA aerosols for a period of 20 minutes by placing them in a chamber using an ultrasonic nebulizer (DeVilbiss Pulmo-Aide, 5650D, USA), after receiving the second intraperitoneal injection. • (3) Grouping of the experimental animal: The 10 groups of OVA-sensitized asthmatic mice were separated into a non-treatment asthma group (As); treatment groups with the Poria extract prepared in Example 2 and pure compounds K1, K2 and K3 (1PCE, 1K1, 1K2, 1K3, 2PCE, 2K1, 2K2, and 2K3); and the control drug group (Pred). Each mouse in the treatment group of 1PCE group received daily 0.0372 mg of the ethanol extract PCE prepared in Example 2 (1PCE). 2PCE means mice were fed with two times of the dosage of PCE (0.0744 mg) of the 1PCE group. Each mouse in the treatment groups of 1K1, 1K2 and 1K3 received daily 0.0087 mg of K1, K2 and K3, respectively. 2K1, 2K2, and 2K3 mean mice werer fed with two times of the dosage of K1, K2 and K3 (0.0174 mg) in comparison with the 1K1, 1K2 and 1 K3 groups. Each mouse of the Pred group had been administrated with 0.1 mg of Prednisolone per day for 5 continuous days before the mouse was sacrificed. Above PCE, K1, K2, K3 and Prednisolone compounds were dissolved by 95% ethanol firstly, and finally in Phosphate Buffer Solution (PBS). Each mouse was administered 0.4 mL of total volume each time by gavage. • (4) Airway hyperresponsiveness test: An airway hyperresponsiveness (AHR) value increases proportionally with the severe degree of asthma, and thus a decrease of AHR value is an important index for determining whether asthma is being released. Each mouse in all groups was subjected to the AHR test next day following the 29th day of administering in the treatment groups on which the last inhalate exposure was conducted. The AHR was tested with Buxco system (Biosystem XA; Buxco Electronics Inc. Sharon, CT, USA), wherein the mouse was placed in a chamber, and aerosol of PBS or methacholine of different concentrations (25 mg/ml, and 50 mg/ml) was introduced into the chamber by using an ultrasonic nebulizer. Three minutes after the introduction an average value of AHR per minute was recorded. […] The value of Penh (pause of enhance) was calculated by collecting data derived from transducer (differential pressure transducer; Buxco) and preamplifier (MAX □, Buxco) in the system. The relative increase ratio of Penh was calculated as Penh% = Penhmethacholine/PenhPBS, wherein Penhmethacholine is the average value of Penh after the mice inhale 3 minutes of methacholine aerosol, and PenhPBS is the average value of Penh after the mice inhale 3 minutes of PBS aerosol. • (5) Bronchoalveolar lavage fluid (BALF) and lung histology: As all groups of mice had finished of AHR analysis, they were sacrificed on next day. The lung was immediately lavaged via the trachea cannula (18 GA, angiocath, B.D.) with 1 ml of Hank's balanced salt solution (HBSS, SH30016.01, Hyclone, USA), which contained 2% fetal bovine serum (FBS) and 2 mM 2Na-EDTA for three times. About 3 ml of BALF were collected.

[3] = groups 1K1, 1K2, 1K3: 0.0087 mg per mouse daily by gavage
[4] = groups 2K1, 2K2, 2K3: 0.0174 mg per mouse daily by gavage
[5] = Pred group: 0.1 mg Prednisolone per day for 5 continuous days before sacrifice

SMILES	values of AHR in comparison with the As group ([1]; groups 1K1, 1K3: 0.0087 mg per mouse daily by gavage, methacholine 50mg/mL)	Eotaxin (Eotaxin; [3])	Eotaxin (Eotaxin; [4]) [pg/mL]	Eosinophil [2, 3] [%]	Lymphocyte [2, 3] [%]	Monocyte [2, 3] [%]	Neutrophil [2, 3] [%]	Eosinophil [2, 4] [%]	Lymphocyte [2, 4] [%]	Monocyte [2, 4] [%]	Neutrophil [2, 4] [%]	values of AHR in comparison with the As group [1, 5]	Monocyte [2, 5] [%]	Neutrophil [2, 5] [%]
C=C(CC[C@@H](C(=O)O)[C@H]1[C@H](O)C[C@@]2(C)C3=CC[C@H]4C(C)(C)C(=O)CC[C@]4(C)C3=CC[C@]12C)C(C)C [K3]	significantly lower values ofAHR	significantly lower levels of Eotaxin and 21.1±10.4 pg/mL	25.1 ± 12.0	11.3±7.0	49.8±12.8	38.2±8.7	0.8±0.9	9.7±3.6	52.1±8.1	37.1±5.7	1.1±1.1	–	–	–
C[C@]12C=CC(=O)C=C1CC[C@@H]1[C@@H]2[C@@H](O)C[C@@]2(C)[C@H]1CC[C@]2(O)C(=O)CO [Pred, Prednisolone, reference compound]	–	–	–	–	–	–	–	–	–	–	–	lower values of AHR but not statistically significant	13.3±7.8	0.8±0.8

Reference: EP2305268A1, “A PHARMACEUTICAL COMPOSITION FOR TREATING DISEASE CAUSED BY IMMUNE DISTURBANCE AND THE EXTRACT FROM TUCKAHOE” (Sinphar Tian-li Pharmaceutical Co., Ltd. (Hangzhou), priority 2008, dated 2009)
